Values joined by “and” are separate entries in the source; they are usually repeats but may differ in a detail not shown here. Identical values can stand only once. Ends that are not written are not given here.
What was measured:
[1] = test system: HLA-A24+ hematologic malignant cell line (PEER, REH); experiment: 51Cr-release test of peptide-stimulated PBMCs against HLA-A24+ malignant line; assay type: cell-based, human; settings: peptide-stimulated patient PBMCs further cultured with IL-2, effector/target 3, 10 or 30, 6 h
Description: Then, the cytotoxicity against hematologic malignant cell lines was examined by a standard ^51Cr-release test (Non-Patent Reference 5). Specifically, the PBMCs obtained were used as an effector to mix with ^51Cr-labelled target cells (hereinafter referred to as targets) at an effector/target rate of 3, 10 or 30, and then incubated for six hours, followed by measuring the radioactivity of ^51Cr released in the supernatants. The results obtained were indicated as % lysis which was calculated by regarding a radioactivity as 100% when the targets were completely dissolved. The following targets were used: PEER, an HLA-A24^+ hematologic malignant cell line; HPB-MLT, an HLA-A24^− hematologic malignant cell line; and an HLA-A24^+ PHA blastoid T-cell.

[2] = test system: C1R-A24 cells pulsed with the peptides; experiment: Peptide-specific cytotoxic activity of PBMCs of vaccinated multiple myeloma patient (51Cr-release); assay type: in vivo, human; settings: for peptide-specific cytotoxic activity of PBMCs: MM patient No. 6, PBMCs acquired after the sixth vaccination; for cytotoxic activity (% lysis) against C1R-A24 cells pulsed with corresponding peptide: MM patient No. 6, with the increasing number of peptide vaccination
Description: The patient (patient No. 6 in table 2) subjected to clinical trials was a HLA-A24^+ […] suffering from IgA-type multiple myeloma with a stage III by Durie & Salmon's classification. The patient received multiple cycles of chemotherapy before participating in this clinical test and had acquired the resistance to chemotherapy. However, for four weeks before peptide vaccination, the patient had not received chemotherapy and administration with steroid or any other immunosuppressive drugs.
Three kinds of emulsions each of which contains each of these peptides respectively and an adjuvant were prepared according to the method described in Example 1, and vaccinated to the patient by injecting subcutaneously at different sites of the patient's lateral thigh. […] The skin test was conducted by injecting intradermally the solution of 50 μg of each peptide in physiological saline and determining immediate-type or delayed-type hypersensitivity reaction at 20 minutes or 24 hours after the injection.
The vaccinations were conducted seven times every two weeks using SART-1690 (SEQ ID NO: 4), Lck488 (SEQ ID NO: 2) and ART-1170 (SEQ ID NO: 10). The cytotoxic activity of PBMCs acquired after the sixth vaccination was measured according to the in vitro test described in Example 3. […] Therefore, in the eighth and later vaccinations, three kinds of emulsions each of which contains SART-1690 (SEQ ID NO: 4), Lck488 (SEQ ID NO: 2) or Lck208 (SEQ ID NO: 1) and an adjuvant were prepared according to the method described in Example 1 and used.
After the vaccinations, PBMCs derived from the patient were studied for their peptide-specific cytotoxic activity by ^51Cr-release test using C1R-A24 cells pulsed with the peptides used. […] On the other hand, their cytotoxic activity was extremely low against RPMI-8226 that is an HLA-A24^− myeloid cell line.

[3] = test system: PBMCs of HLA-A24+ patients with hematologic malignancies; experiment: IFN-γ production by peptide-stimulated patient PBMCs in response to peptide-pulsed C1R-A24 cells; assay type: cell-based, human; design: peptide-specific IFN-γ production: unit not given here; settings: for peptide-specific IFN-γ production: 10 μM peptide in vitro, vs peptide-pulsed C1R-A24, HIV-peptide background subtracted; for Responding case/total (enhancement of IFN-γ production): ten HLA-A24+ patients with hematologic malignancies
Description: The induction of peptide-specific cytotoxic T lymphocytes from PBMCs of a patient with hematologic malignancy was conducted as reported preveously (Non-Patent Reference 5). The following peptides were used to induce cytotoxic T lymphocytes: p56^lck protein-derived peptides (Lck208 (SEQ ID NO: 1), Lck488 (SEQ ID NO: 2) and Lck486 (SEQ ID NO: 3)); SART-1-derived peptide (SART-1690 (SEQ ID NO: 4)); SART-2-derived peptides (SART-293 (SEQ ID NO: 5), SART-2161 (SEQ ID NO: 6) and SART-2899 (SEQ ID NO: 7)); SART-3-derived peptides (SART-3109 (SEQ ID NO: 8) and SART-3315 (SEQ ID NO: 9)); and ART-1-derived peptide (ART-1170 (SEQ ID NO: 10)). All of these peptides are the epithelial cancer-related antigen-derived peptides and have the ability to induce cytotoxic T lymphocytes from PBMCs of an epithelial cancer patient in an HLA-A24 dependent manner (Non-Patent References 3-6 and 12). A human immunodeficiency virus (HIV)-derived peptide (SEQ ID NO: 11) and Epstein-Barr virus (EBV)-derived peptide (SEQ ID NO: 12) were used respectively as a negative control peptide and positive control peptide both of which have an HLA-A24-binding motif. […] PBMCs were prepared from peripheral blood that was collected from a patient with hematologic malignancy using Ficoll-Conray density-gradient centrifugation. The expression of HLA-A24 molecules on PBMCs was determined using flow cytometry by a well known method (Non-Patent Reference 5). The induction of cytotoxic T lymphocytes from PBMCs was conducted as follows. […] The culture medium consisted of 45% RPMI-1640, 45% AIM-V (Invitrogen), 10% FCS, 100 U/ml of interleukin-2 (IL-2), and 0.1 mM MEM non-essential amino acid solution (Invitrogen). […] The background IFN-γ production in response to the HIV-derived peptide (SEQ ID NO: 11) was subtracted from the values given in the data. When the mean value of the IFN-γ produced from the peptide-stimulated PBMCs in response to a corresponding peptide was higher than that produced in response to the HIV peptide (SEQ ID NO: 11), it was judged that the precursor of a peptide-specific cytotoxic T lymphocyte was present in the PBMCs and that the peptide-specific cytotoxic T lymphocytes were induced by the peptide. PBMCs of ten cases of HLA-A24^+ patients with hematologic malignancies (two cases with CLL, one case with MCL, one case with NHL, one case with B-ALL, one case with MM, one case with MDS, two cases with ATL, and one case with T-ALL) were tested for the induction of cytotoxic T lymphocytes using peptides that were derived from p56^lck protein, SART-1, SART-2, SART-3 and ART-1. The peptides used were the peptides that induced peptide-specific tumor-reactive cytotoxic T lymphocytes from PBMCs of an HLA-A24^+ epithelial cancer patient, which are currently on clinical trials for use as vaccines for epithelial cancer patients. The PBMCs were stimulated with the peptide in vitro to measure the peptide-specific IFN-γ production.

Molecule | cytotoxic activity (% lysis) against HLA-A24+ hematologic malignant line ([1]; listed as EBV derive peptides) | cytotoxic activity (% lysis) against HLA-A24+ hematologic malignant line ([1]; listed as EBV-derived peptide) | cytotoxic activity (% lysis) against HLA-A24+ hematologic malignant line ([1]; listed as Epstein-Barr virus (EBV)-derived peptide) | peptide-specific cytotoxic activity of PBMCs [2] | cytotoxic activity (% lysis) against C1R-A24 cells pulsed with corresponding peptide [2] | peptide-specific IFN-γ production ([3]; PBMCs of patient #1 CLL) | peptide-specific IFN-γ production ([3]; PBMCs of patient #2 CLL) | peptide-specific IFN-γ production ([3]; PBMCs of patient #3 MCL) | peptide-specific IFN-γ production ([3]; PBMCs of patient #4 NHL) | peptide-specific IFN-γ production ([3]; PBMCs of patient #5 B-ALL) | peptide-specific IFN-γ production ([3]; PBMCs of patient #6 MM) | peptide-specific IFN-γ production ([3]; PBMCs of patient #7 MDS) | peptide-specific IFN-γ production ([3]; PBMCs of patient #8 ATL) | peptide-specific IFN-γ production ([3]; PBMCs of patient #9 ATL) | peptide-specific IFN-γ production ([3]; PBMCs of patient #10 T-ALL) | Responding case/total (enhancement of IFN-γ production) [3] | cytotoxic activity (% lysis) against HLA-A24+ hematologic malignant line ([1]; listed as HIV-derived peptide) | cytotoxic activity (% lysis) against HLA-A24+ hematologic malignant line ([1]; listed as human immunodeficiency virus (HIV)-derived peptide)
CSCC[C@H](NC(=O)[C@H](Cc1ccccc1)NC(=O)[C@@H](NC(=O)[C@@H]1CCCN1C(=O)CNC(=O)[C@H](Cc1ccc(O)cc1)NC(=O)[C@@H](N)[C@@H](C)O)C(C)C)C(=O)N[C@@H](CS)C(=O)N[C@@H](CC(C)C)C(=O)O [EBV, reference compound] | not observed | exhibited no cytotoxic activity | exhibited no cytotoxic activity |  |  |  |  |  |  |  |  |  |  |  |  |  |  | 
Lck208: p56lck protein-derived peptide, N-terminal residue at position 208; epithelial cancer-related antigen peptide (HYTNASDGL; Partial peptide of p56lck protein) |  |  |  | observed | enhanced induction of cytotoxic activity | 0 | 2 | 22 | 30 | 0 | 0 | 0 | 0 | 445 | 153 | two and 2/10 |  | 
Lck488: p56lck protein-derived peptide; epithelial cancer-related antigen peptide (DYLRSVLEDF; Partial peptide of p56lck protein) |  |  |  | observed | enhanced induction of cytotoxic activity | 0 | 0 | 0 | 0 | 6 | 182 | 102 | 476 | 304 | 0 | four and 4/10 |  | 
RYLRDQQLLGI [HIV, reference compound] |  |  |  |  |  |  |  |  |  |  |  |  |  |  |  |  | not observed | exhibited no cytotoxic activity
SART-1690: SART-1-derived peptide; epithelial cancer-related antigen peptide (EYRGFTQDF; Partial peptide of SART-1) |  |  |  | observed |  | 0 | 486 | 0 | 53 | 8 | 141 | 0 | 55 | 155 | 26 | 3/10 |  | 
SART-3315: SART-3-derived peptide; epithelial cancer-related antigen peptide (AYIDFEMKI; Partial peptide of SART-3) |  |  |  |  |  | 39 | 137 | 6 | 0 | 11 | 0 | 0 | 22 | 60 | 6 | 1/10 |  | 

— patent publication US20060240026A1, “Preventing and/or remedy hematopoietic tumor” (GREEN PEPTIDE CO., LTD., priority 2003, published 2006)
